Data taken from publication PMC4096861 (Clinical lymphoma, myeloma & leukemia, 2013).
Like-named read-outs stand apart in the source and are kept apart here.

Tests used:
[1] = format: in vivo, human
[2] = system: bone marrow blasts; assay: Phase 1: efficacy; format: in vivo, human
[3] = system: aurora kinase B substrate pHH3; assay: Western blot of PBMCs from patient blood; format: in vivo, human
[4] = Phase 1: plasma pharmacokinetics, Cycle 1; format: in vivo, human; settings: for clearance / Tmax / AUC(0-inf) / Cmax: human
[5] = system: Aurora A; settings: @ 3 nM; cited from earlier work
[6] = system: Aurora B; settings: @ 3 nM; cited from earlier work
[7] = system: Fit3; settings: @ 15 nM; cited from earlier work
[8] = system: c-kit; settings: @ 250 nM; cited from earlier work
[9] = system: RSK-1; settings: read-out: IC50 RSK-1; cited from earlier work
[10] = system: Lck; settings: read-out: IC50 Lck; cited from earlier work
[11] = system: Src; settings: read-out: IC50 Src; cited from earlier work
[12] = system: AML; settings: eight of 32 adult AML patients; cited from earlier work
[13] = plasma, intravenous, 144 mg/m^2
[14] = plasma, intravenous, 160 mg/m^2
[15] = plasma, intravenous, 200 mg/m^2
[16] = plasma, intravenous, 216 mg/m^2

O=C(Nc1c[nH]nc1-c1nc2ccc(CN3CCOCC3)cc2[nH]1)NC1CC1 [AT9283]
deaths ([1]; 13 deaths of 48 patients): 27% | MTD ([1]; 72-hour continuous infusion every 21 days): 324 mg/m^2/72h | MTD ([1]; 72-hour infusion): 108 mg/m^2/day | AE incidence overall: constipation ([1]; human, in vivo): 21% | AE incidence overall: diarrhea ([1]; human, in vivo): 29% | AE incidence overall: epistaxis ([1]; human, in vivo): 17% | AE incidence overall: fatigue ([1]; human, in vivo): 27% | AE incidence overall: febrile neutropenia ([1]; human, in vivo): 25% | AE incidence overall: gastrointestinal disorders ([1]; human, in vivo): 75% | AE incidence overall: headache ([1]; human, in vivo): 21% | AE incidence overall: nausea ([1]; human, in vivo): 29% | AE incidence overall: peripheral edema ([1]; human, in vivo): 25% | AE incidence overall: pneumonia ([1]; human, in vivo): 29% | AT9283-related AE incidence: alopecia ([1]; human, in vivo): 8% | AT9283-related AE incidence: nausea ([1]; human, in vivo): 15% | AT9283-related AE incidence: stomatitis ([1]; human, in vivo): 13% | incidence of cardiac tachyarrythmias ([1]; human, in vivo): 15% | patients withdrawn after treatment due to AEs ([1]; human, in vivo): 15% | incidence of AEs (highest) ([1]; human, in vivo, 72 h): 100% | incidence of AEs (lowest) ([1]; human, in vivo, 72 h): 29% | DLTs ([1]; in vivo): myocardial infarction, hypertension, cardiomyopathy, tumor lysis syndrome, pneumonia, and multiorgan failure | left ventricular ejection fraction (LVEF) after severe drop ([1]; in vivo): 20–25% | tolerability of regimen ([1]; in vivo): unacceptably toxic | reduction in bone marrow blasts ([2]; Patient B, MTD 108 mg/m^2/day over 72h, 2 cycles, 62% at baseline v 32% at follow-up): 48% | objective remission (complete and partial) ([2]; all patients): no objective or partial remissions were observed | reduction in bone marrow blasts ([2]; approximately one-third of patients with relapsed/refractory AML): ≥ 38% | benefit in accelerated phase CML ([2]; both patients with accelerated phase CML, cytogenetic response in 1): evidence of benefit | benefit in myeloproliferative disease ([2]; patients with myeloproliferative disease): no sustained evidence of treatment benefit | pHH3 phosphorylation in PBMCs ([3]; 3 mg/m^2/day (9 mg/m^2/72h), two of three patients): inhibition of pHH3 phosphorylation was observed | phosphorylation of aurora kinase B substrate pHH3 in PBMCs ([3]; MTD 108 mg/m^2/day (324 mg/m^2/72h), two of three patients): rapid inhibition of phosphorylation | duration of pHH3 inhibition following treatment ([3]; MTD, both patients): […] | dose proportionality of exposure ([4]; Cmax and AUC0-inf): generally proportional to dose | clearance ([4]; in vivo): 5.36 mL/min/kg | Tmax ([4]; in vivo, Tmax): 53.8 h | Tmax ([4]; in vivo, Tmax of mean maximum plasma concentrations): 41 to 62 h | AUC(0-inf) ([4]; plasma, intravenous, 9 mg/m^2): 465 ng·h/mL | Cmax ([4]; plasma, intravenous, 9 mg/m^2): 7.35 ng/mL | clearance ([4]; plasma, intravenous, 9 mg/m^2): 9.52 mL/min/kg | Tmax ([4]; plasma, intravenous, 9 mg/m^2, Tmax, Cycle 1 mean plasma, 9 mg/m^2, 72 hr infusion (n=3)): 47.2 h | AUC(0-inf) ([4]; plasma, intravenous, 18 mg/m^2): 1070 ng·h/mL | Cmax ([4]; plasma, intravenous, 18 mg/m^2): 18.1 ng/mL | clearance ([4]; plasma, intravenous, 18 mg/m^2): 7.17 mL/min/kg | Tmax ([4]; plasma, intravenous, 18 mg/m^2, Tmax, Cycle 1 mean plasma, 18 mg/m^2, 72 hr infusion (n=3)): 62 h | AUC(0-inf) ([4]; plasma, intravenous, 36 mg/m^2): 2860 ng·h/mL | Cmax ([4]; plasma, intravenous, 36 mg/m^2): 41.1 ng/mL | clearance ([4]; plasma, intravenous, 36 mg/m^2): 6.03 mL/min/kg | Tmax ([4]; plasma, intravenous, 36 mg/m^2, Tmax, Cycle 1 mean plasma, 36 mg/m^2, 72 hr infusion (n=7)): 53.2 h | AUC(0-inf) ([4]; plasma, intravenous, 72 mg/m^2): 16300 ng·h/mL | Cmax ([4]; plasma, intravenous, 72 mg/m^2): 131 ng/mL | clearance ([4]; plasma, intravenous, 72 mg/m^2): 1.84 mL/min/kg | Tmax ([4]; plasma, intravenous, 72 mg/m^2, Tmax, Cycle 1 mean plasma, 72 mg/m^2, 72 hr infusion (n=3)): 46.7 h | AUC(0-inf) [4, 13]: 14300 ng·h/mL | Cmax [4, 13]: 229 ng/mL | clearance [4, 13]: 4.27 mL/min/kg | Tmax ([4]; plasma, intravenous, 144 mg/m^2, Tmax, Cycle 1 mean plasma, 144 mg/m^2, 72 hr infusion (n=4)): 54.7 h | AUC(0-inf) [4, 14]: 13700 ng·h/mL | Cmax [4, 14]: 164 ng/mL | clearance [4, 14]: 5.61 mL/min/kg | Tmax ([4]; plasma, intravenous, 160 mg/m^2, Tmax, Cycle 1 mean plasma, 160 mg/m^2, 96 hr infusion (n=12)): 59.3 h | AUC(0-inf) [4, 15]: 19100 ng·h/mL | Cmax [4, 15]: 184 ng/mL | clearance [4, 15]: 4.58 mL/min/kg | Tmax ([4]; plasma, intravenous, 200 mg/m^2, Tmax, Cycle 1 mean plasma, 200 mg/m^2, 120 hr infusion (n=4)): 69 h | AUC(0-inf) [4, 16]: 13000 ng·h/mL | Cmax [4, 16]: 228 ng/mL | clearance [4, 16]: 7.13 mL/min/kg | Tmax ([4]; plasma, intravenous, 216 mg/m^2, Tmax, Cycle 1 mean plasma, 216 mg/m^2, 72 hr infusion (n=3)): 41.3 h | Cmax ([4]; plasma, intravenous, 486 mg/m^2): 1280 ng/mL | Tmax ([4]; plasma, intravenous, 486 mg/m^2, Tmax, Cycle 1 mean plasma, 486 mg/m^2, 72 hr infusion (n=3)): 51 h | inhibition of Aurora A [5]: 52% @ 3 nM | inhibition of Aurora B [6]: 58% @ 3 nM | inhibition of Fit3 [7]: 57% @ 15 nM | inhibition of c-kit [8]: 46% @ 250 nM | IC50 [9]: […] | IC50 [10]: 63 nM | IC50 [11]: 97 nM

CCN(CCCOc1ccc2c(Nc3cc(CC(=O)Nc4cccc(F)c4)n[nH]3)ncnc2c1)CCOP(=O)(O)O [AZD1152]
haematologic response according to IWG AML criteria [12]: 25%
